Legend:
[1] = system: Echinochloa oryzoides (Ard.) Fritsch.; test: Preemergence weed control under flooded paddy conditions, ECHORC (Watergrass (Calif.)); assay type: in vivo; details: preemergence, flooded paddy, rated 3-4 weeks after treatment; note: meaning of each grade not given here
Cyperus iria [2] = test: Preemergence weed control under flooded paddy conditions, CYPIR (Rice Flatsedge); assay type: in vivo; details: preemergence, flooded paddy, rated 3-4 weeks after treatment; note: meaning of each grade not given here
[3] = system: Cyperus serotinus, Rottb.; test: Preemergence weed control under flooded paddy conditions, CYPSE (Flatsedge); assay type: in vivo; details: preemergence, rated 3-4 weeks after treatment; note: meaning of each grade not given here
[4] = system: Monochoria vaginalis, Presl.; test: Preemergence weed control under flooded paddy conditions, MOOVA (Monochoria); assay type: in vivo; details: preemergence, flooded paddy, rated 3-4 weeks after treatment; note: meaning of each grade not given here
Sagittaria pygmaea, L. [5] = test: Preemergence weed control under flooded paddy conditions, SAGPY (Arrowhead (Pygmaea)); assay type: in vivo; details: preemergence, flooded paddy, rated 3-4 weeks after treatment; note: meaning of each grade not given here
[6] = system: Echinochloa oryzoides (Ard.) Fritsch.; test: Postemergence weed control under flooded paddy conditions, ECHORC (Watergrass (Calif.)); assay type: in vivo; details: rated three to four weeks after treatment
Cyperus iria [7] = test: Postemergence weed control under flooded paddy conditions, CYPIR (Rice Flatsedge); assay type: in vivo; details: rated three to four weeks after treatment
[8] = system: Cyperus serotinus, Rottb.; test: Postemergence weed control under flooded paddy conditions, CYPSE (Flatsedge); assay type: in vivo; details: rated three to four weeks after treatment
[9] = system: Monochoria vaginalis, Presl.; test: Postemergence weed control under flooded paddy conditions, MOOVA (Monochoria); assay type: in vivo; details: rated three to four weeks after treatment
Sagittaria pygmaea, L. [10] = test: Postemergence weed control under flooded paddy conditions, SAGPY (Arrowhead (Pygmaea)); assay type: in vivo; details: rated three to four weeks after treatment
[11] = system: Oryza sativa, (L.) Tebonnet; test: Rice tolerance to post-transplant applications under flooded paddy conditions (Example 187), ORYSAT (Rice, Tebonnet); details: rated 3-4 weeks after treatment; note: meaning of each grade not given here
[12] = system: Oryza sativa, (L.) Tebonnet; test: Rice tolerance to post-transplant applications under flooded paddy conditions (Example 188), ORYSAT (Rice, Tebonnet); details: rated three to four weeks after treatment

Cc1ccc(OCC(=O)OCC2(c3ccccc3)CC2)c(-c2nsc3ccc(-n4c(=O)cc(C(F)(F)F)n(C)c4=O)cc23)c1 [Example 517, Acetic acid, {{2-{5-[3,6-dihydro-3-methyl-2,6-dioxo-4-(trifluoromethyl)-1(2H)-pyrimidinyl]-1,2-benzisothiazol-3-yl}-p-tolyl}oxy}-, (1-phenylcyclopropyl)methyl ester]
herbicidal effect rating, ECHORC ([1]; Rate 0.0320 kg/ha): 9.0
herbicidal effect rating, ECHORC ([1]; Rate 0.0620 kg/ha): 9.0
herbicidal effect rating, ECHORC ([1]; Rate 0.1250 kg/ha): 8.0
herbicidal effect rating, ECHORC ([1]; Rate 0.2500 kg/ha): 9.0
herbicidal effect rating, CYPIR (Cyperus iria [2]; Rate 0.0320 kg/ha): 5.5
herbicidal effect rating, CYPIR (Cyperus iria [2]; Rate 0.0620 kg/ha): 6.5
herbicidal effect rating, CYPIR (Cyperus iria [2]; Rate 0.1250 kg/ha): 5.5
herbicidal effect rating, CYPIR (Cyperus iria [2]; Rate 0.2500 kg/ha): 7.0
herbicidal effect rating, CYPSE ([3]; Rate 0.0320 kg/ha): 3.0
herbicidal effect rating, CYPSE ([3]; Rate 0.0620 kg/ha): 4.5
herbicidal effect rating, CYPSE ([3]; Rate 0.1250 kg/ha): 4.5
herbicidal effect rating, CYPSE ([3]; Rate 0.2500 kg/ha): 0.0
herbicidal effect rating, MOOVA ([4]; Rate 0.0320 kg/ha): 9.0
herbicidal effect rating, MOOVA ([4]; Rate 0.0620 kg/ha): 9.0
herbicidal effect rating, MOOVA ([4]; Rate 0.1250 kg/ha): 9.0
herbicidal effect rating, MOOVA ([4]; Rate 0.2500 kg/ha): 9.0
herbicidal effect rating, SAGPY (Sagittaria pygmaea, L. [5]; Rate 0.0320 kg/ha): 0.0
herbicidal effect rating, SAGPY (Sagittaria pygmaea, L. [5]; Rate 0.0620 kg/ha): 0.0
herbicidal effect rating, SAGPY (Sagittaria pygmaea, L. [5]; Rate 0.1250 kg/ha): 0.0
herbicidal effect rating, SAGPY (Sagittaria pygmaea, L. [5]; Rate 0.2500 kg/ha): 0.0
herbicidal effect rating, ECHORC ([6]; Rate 0.0320 kg/ha): 0.0
herbicidal effect rating, ECHORC ([6]; Rate 0.0620 kg/ha): 0.0
herbicidal effect rating, ECHORC ([6]; Rate 0.1250 kg/ha): 0.0
herbicidal effect rating, ECHORC ([6]; Rate 0.2500 kg/ha): 0.0
herbicidal effect rating, CYPIR (Cyperus iria [7]; Rate 0.0320 kg/ha): 3.0
herbicidal effect rating, CYPIR (Cyperus iria [7]; Rate 0.0620 kg/ha): 5.0
herbicidal effect rating, CYPIR (Cyperus iria [7]; Rate 0.1250 kg/ha): 9.0
herbicidal effect rating, CYPIR (Cyperus iria [7]; Rate 0.2500 kg/ha): 9.0
herbicidal effect rating, CYPSE ([8]; Rate 0.0320 kg/ha): 0.0
herbicidal effect rating, CYPSE ([8]; Rate 0.0620 kg/ha): 0.0
herbicidal effect rating, CYPSE ([8]; Rate 0.1250 kg/ha): 0.0
herbicidal effect rating, CYPSE ([8]; Rate 0.2500 kg/ha): 0.0
herbicidal effect rating, MOOVA ([9]; Rate 0.0320 kg/ha): 9.0
herbicidal effect rating, MOOVA ([9]; Rate 0.0620 kg/ha): 9.0
herbicidal effect rating, MOOVA ([9]; Rate 0.1250 kg/ha): 9.0
herbicidal effect rating, MOOVA ([9]; Rate 0.2500 kg/ha): 9.0
herbicidal effect rating, SAGPY (Sagittaria pygmaea, L. [10]; Rate 0.0320 kg/ha): 0.0
herbicidal effect rating, SAGPY (Sagittaria pygmaea, L. [10]; Rate 0.0620 kg/ha): 0.0
herbicidal effect rating, SAGPY (Sagittaria pygmaea, L. [10]; Rate 0.1250 kg/ha): 0.0
herbicidal effect rating, SAGPY (Sagittaria pygmaea, L. [10]; Rate 0.2500 kg/ha): 0.0
herbicidal effect rating ORYSAT ([11]; Rate 0.0320 kg/ha): 0.0
herbicidal effect rating ORYSAT ([11]; Rate 0.0620 kg/ha): 0.0
herbicidal effect rating ORYSAT ([11]; Rate 0.1250 kg/ha): 1.5
herbicidal effect rating ORYSAT ([11]; Rate 0.2500 kg/ha): 3.0
herbicidal effect rating, ORYSAT (rice tolerance) ([12]; Rate 0.0320 kg/ha): 0.0
herbicidal effect rating, ORYSAT (rice tolerance) ([12]; Rate 0.0620 kg/ha): 0.0
herbicidal effect rating, ORYSAT (rice tolerance) ([12]; Rate 0.1250 kg/ha): 0.0
herbicidal effect rating, ORYSAT (rice tolerance) ([12]; Rate 0.2500 kg/ha): 0.0
